# Laboratory results reported in US20080167324A1, “Thiazolymethyl and Oxazolylmethyl Heteroaryl Derivatives” (priority 2005, published 2008).
# pKd: −log10 of the molar value.
# Target: benzodiazepine site of the GABAA receptor
# Test: Ligand binding assay (3H-Ro15-1788 displacement, purified rat cortical membranes)
# Conditions: previously determined; used in the Cheng-Prusoff equation; read-out: Kd, binding dissociation constant of the radioligand
compound,measurement,value
CCOC(=O)c1ncn2c1CN(C)C(=O)c1cc(F)ccc1-2 [^3H-Ro15-1788],pKd,9.00
